Entries after “also recorded” stand apart in the source; their conditions may differ.
Columns and labels:
[1] = system: SGLT1 mRNA; experiment: Transcription of SGLT1 mRNA in Caco-2 cells (RT-PCR); assay type: cell-based, human; conditions: 62.50 µg/ml, normalized to GAPDH
Description: (§1) RNA was extracted from Caco-2 cells using an RNA extraction kit (QIAGEN, Hilden, Germany). Reverse transcription was performed with SuperScript III Reverse Transcriptionase (Thermo Fisher Scientific, Waltham, USA). cDNA was synthesized from 2 µg of total RNA according to the manufacturer’s instructions. Then, the cDNA was maintained at − 20°C for further analysis by real-time PCR. The specific primers used in the experiment were as follows: SGLT1, 5’-[…]-3’ (forward) and 3’-[…]-5’ (reverse); GLUT2, 5’-[…]-3’ (forward) and 3’-[…]-5’ (reverse); GLUT5, 5’- […]-3’ (forward) and 3’-[…]-5’ (reverse). All conditions were performed in triplicate with 3 independent experiments. The real-time qPCR mixture (10 µL) comprised 1 µL of DNA polymerase, template DNA (25 ng), 1 µL of DEPC, and 1.2 µL of forward and reverse primers. Thermal cycling (Applied Biosystems, Waltham, USA) consisted of (denaturation 95 °C for 20 s, annealing 63.3 °C for 30 s, and extension 72 °C for 20 s, 40 cycles. The gene expression data were normalized to the internal control gene GAPDH and then compared using comparative delta-delta Ct.

[2] = system: GLUT5 mRNA; experiment: Transcription of GLUT5 mRNA in Caco-2 cells (RT-PCR); assay type: cell-based, human; conditions: 62.50 µg/ml, normalized to GAPDH
Description: as §1

[3] = system: GLUT2 mRNA; experiment: Transcription of GLUT2 mRNA in Caco-2 cells (RT-PCR); assay type: cell-based, human; conditions: 62.50 µg/ml, normalized to GAPDH
Description: as §1

[4] = ABTS scavenging assay; conditions: mean ± SEM
[5] = DPPH radical scavenging assay; conditions: mean ± SEM
Description: The method by Kumar, Sanjiv et al. was adopted for DPPH (2,2-diphenyl-1-picrylhydrazyl) assays with slight modifications. Briefly, DPPH solution (100 µl) and extract solution (100 µl) were added to a 96-well microplate and thoroughly mixed. The absorbance was measured at 517 nm after a 30-minute incubation time at room temperature.

[6] = system: Caco-2 cells; experiment: Cell viability assay (MTT) in Caco-2 cells; assay type: cell-based, human; conditions: concentrations from 0 to 62.50 ug/ml, 24 h
Description: (§2) Caco-2 cells were obtained from the American Type Culture Collection (ATCC). The cells were cultured in DMEM with 10% FBS and 1% penicillin–streptomycin solution and were maintained at 37 °C in a humidified environment of 95% air and 5% CO2. For the viability test, the Caco-2 cells were seeded on 96-well plates, and 24-well Transwell plates were used to determine α-glucosidase inhibition. […] Fresh media was supplied to the cells every two days during this period.
Caco-2 cells were obtained from the American Type Culture Collection (ATCC). The cells were grown in complete medium (DMEM with 10% FBS, 100 units/mL penicillin, and 100 µg/mL streptomycin) and plated at a density of 10,000 cells per well in 96-well plates for 21 days. Then, the cells were treated with extracts at concentrations ranging from […] for another 24 h. DMSO (0.1%) was added to the control group. The MTT test was used to measure cell viability after treatment. In a 96-well plate, 100 µl of MTT at a concentration of 0.5 mg/ml was applied to each well. The MTT solution was withdrawn after 3 h of incubation at 37 °C, and formazan crystals were dissolved in 100 µl of DMSO. At 570 nm, the purple color that was generated was detected spectrophotometrically (with a reference OD of 690). Prism 6 software was used to calculate cell viability. The appropriate concentration of extracts was chosen for future experiments.

[7] = system: α-glucosidase in Caco-2 cells; experiment: Inhibition of α-glucosidase activity in Caco-2 cell monolayer; assay type: cell-based, human; conditions: apical side of Caco-2 monolayer; 31.25 and 62.50 ug/ml tested, concentration of the values not given
Description: as §2
Caco-2 cells were seeded in 24-transwell plates at a density of 10,000 cells per well for 21 days. The cells were washed in 1X PBS after the culture media was removed. […] At the same time, the lower chamber was filled with glucose-free medium (500 µl). Then, 50 µl of culture media from the upper chamber was taken and measured by the glucose oxidase method.

SMILES	Transcription of SGLT1 gene (mRNA) [1]	Transcription of GLUT5 gene (mRNA) [2]	Transcription of GLUT2 gene (mRNA) [3]	EC50 [4]	EC50 [5]	Cytotoxicity to Caco-2 cells (MTT) [6]	α-glucosidase activity compared with untreated cells [7]
C[C@H]1O[C@H](O[C@H]2[C@H](O)[C@@H](O)[C@@H](O[C@H]3[C@H](O)[C@@H](O)C(O)O[C@@H]3CO)O[C@@H]2CO)[C@H](O)[C@@H](O)[C@@H]1N[C@H]1C=C(CO)[C@@H](O)[C@H](O)[C@H]1O (stereo partly drawn) [Acarbose, acarbose, reference compound]	downregulated	downregulated	downregulated	–	–	–	–
O=C1O[C@H]([C@@H](O)CO)C(O)=C1O [Ascorbic acid, ascorbic acid, reference compound]	–	–	–	25.1 ± 0.19 µM	30.38 ± 0.18 µM	–	–
C[C@@H]1O[C@@H](Oc2coc3cc(O)cc(O)c3c2=O)[C@H](O)[C@H](O)[C@H]1O [Compound 1, 3,5,7-trihydroxychromone-3-O-α-L-rhamnopyranoside]	downregulated	downregulated	downregulated	10.3 ± 0.2 µM	5.22 ± 0.2 µM	without cytotoxicity; also recorded: not cytotoxic	59.75%

From paper PMC9442914, “Antidiabetic potential of Lysiphyllum strychnifolium (Craib) A. Schmitz compounds in human intestinal epithelial Caco-2 cells and molecular docking-based approaches” (BMC Complementary Medicine and Therapies, 2022)
